Data on 1 molecule can be found in paper PMC12362618, “Development of the First Small-Molecule Inhibitor Targeting Oncostatin M for Treatment of Breast Cancer” (Journal of Medicinal Chemistry, 2025).

The test system of the data set is T47D and MCF-7 human breast cancer cells. Put plainly: MTS cell viability assay. Type of data set: cell-based. Here is the method:
Cell viability was assessed using the CellTiter 96 AQueous One Solution Cell Proliferation Assay (Promega, cat. no. G3580), following the manufacturer’s instructions. Briefly, T47D and MCF-7 human breast cancer cells were seeded in 96-well plates at a density of 10,000 cells/well in 100 μL of complete growth medium and allowed to adhere overnight. Cells were then treated with a serial dilution (100 μM to 0.1 nM) of SMI-10B, SMI-10B13, Temozolomide (positive control), or vehicle (DMSO) for 24 h. Following treatment, 20 μL of MTS reagent was added directly to each well, and plates were incubated at 37 °C in a humidified incubator with 5% CO2 and imaged after 1 h of incubation. Absorbance was measured at 490 nm by using a microplate reader. Cell viability was expressed as a percentage relative to the vehicle-treated controls, and experiments were performed in triplicate.
On the technique in general: Tetrazolium dyes change colour on reduction, which living cells bring about.

As for `Cn1nnc2c(C(N)=O)ncn2c1=O` [Temozolomide, reference compound], the “Cytotoxicity / cell viability via MTS assay” value is “moderate toxicity as concentration increases”.
